The values below are quoted from earlier work in patent US8394309B2, “Resin film and method for producing it, polarizer and liquid crystal display device” (FUJIFILM Corporation, priority 2010, dated 2013).

The conditions of the data set: Table 1.
On to `O=C(O)CC(O)(CC(=O)O)C(=O)O` [Citric acid, reference compound], for which the “Organic acid: Acid dissociation constant” value is on record as 4.0. As to `CCCCCCCC/C=C/CCCCCCCC(=O)OCC(O)COC(=O)CC(O)(CC(=O)O)C(=O)O` (centres unmarked) [Citric and oleic acid esters of glycerol, citric and oleic acid esters of glycerol], the “Organic acid: Acid dissociation constant” value is recorded as 3.2. With `O=C(O)CN(CC(=O)O)Cc1ccccc1` [N-benzylimino-diacetic acid, N-benzyliminodiacetic acid], the “Organic acid: Acid dissociation constant” value is reported as 3.2. As for `CCCCCCCC/C=C\CCCCCCCC(=O)O` [Oleic acid], the “Organic acid: Acid dissociation constant” value is 4.9. On to `CCCCOB(OCCCC)OCCCC` [Tributyl borate, reference compound], for which the “Organic acid: Acid dissociation constant” value is given as 6.0.

Regarding `CCCCCCCCCCC(=O)O` [Undecanoic acid], the “Organic acid: Acid dissociation constant” value is 4.8. As to `CCCCC(=O)O` [Valeric acid, reference compound], the “Organic acid: Acid dissociation constant” value is on record as 4.8. In the case of `CCCCCCCCCCCCN(CC(=O)O)CC(=O)O` [lauramino-diacetic acid, lauraminodiacetic acid], the “Organic acid: Acid dissociation constant” value is reported as 4.5.
